Measured values as given in patent US20240025841A1, “METHOD FOR OBTAINING CRYSTALLINE DIETHYLAMINO HYDROXYBENZOYL HEXYL BENZOATE” (BASF SE, priority 2020, published 2024).

Experiment: Equilibrium solubility of (I) in 1-hexanol at different temperatures
Format: physicochemical
Settings: equilibrium solubility in 1-hexanol
Experimental: The equilibrium solubility of (I) in 1-hexanol at different temperatures was determined using a double jacketed 750 mL crystallizer. A mixture of (I) and 1-hexanol in the crystallizer was heated to a target temperature and the equilibrium condition was allowed to establish at that temperature. Samples from the solid free mother liquor were drawn using a filter frit. The samples were analysed for (I) content.
The results are shown in […].1 and are plotted in FIG. 1.

In the case of `CCCCCCOC(=O)c1ccccc1C(=O)c1ccc(N(CC)CC)cc1O` [(I), 2-(4′-Diethylamino-2′-hydroxybenzoyl)benzoic acid hexyl ester], the “(I) concentration” value (0 °C) is reported as 3.8%, the “(I) concentration” value (4 °C) is reported as 4.3% and the “(I) concentration” value (7 °C) is reported as 5.4%. For the same molecule, the “(I) concentration” value (8 °C) was 5.3%, the “(I) concentration” value (12 °C) was 6.2% and the “(I) concentration” value (13.7 °C) was 8.6%. The “(I) concentration” value (16 °C) was 7.6%, the “(I) concentration” value (20 °C) was 8.8% and the “(I) concentration” value (25 °C) was 12.3%. The “(I) concentration” value (28.3 °C) was 17.6%, the “(I) concentration” value (30 °C) was 19.0% and the “(I) concentration” value (35 °C) was 40.0%. For the same molecule, the “(I) concentration” value (−0.9 °C) was 3.4%.
